In US9517265B2, “Methods for the prevention and/or treatment of memory impairment” (The Governing Council of the University of Toronto, priority 2010, dated 2016):

Legend:
α5GABAARs = α5GABAARs (Mus musculus, UniProt P22723+Q8BHJ7); settings: WT mice, cited from earlier work
[1] = tested on: α1, α2 and α3 subunit-containing GABAA receptors; settings: 1 mg/kg intraperitoneal; cited from earlier work
α5GABAA receptors = assay: In vivo receptor occupancy of L-655,708 (literature); settings: 0.7 mg/kg intraperitoneal, 30 min after injection

Chain of α5GABAARs (Q8BHJ7 32-463 limits assumed): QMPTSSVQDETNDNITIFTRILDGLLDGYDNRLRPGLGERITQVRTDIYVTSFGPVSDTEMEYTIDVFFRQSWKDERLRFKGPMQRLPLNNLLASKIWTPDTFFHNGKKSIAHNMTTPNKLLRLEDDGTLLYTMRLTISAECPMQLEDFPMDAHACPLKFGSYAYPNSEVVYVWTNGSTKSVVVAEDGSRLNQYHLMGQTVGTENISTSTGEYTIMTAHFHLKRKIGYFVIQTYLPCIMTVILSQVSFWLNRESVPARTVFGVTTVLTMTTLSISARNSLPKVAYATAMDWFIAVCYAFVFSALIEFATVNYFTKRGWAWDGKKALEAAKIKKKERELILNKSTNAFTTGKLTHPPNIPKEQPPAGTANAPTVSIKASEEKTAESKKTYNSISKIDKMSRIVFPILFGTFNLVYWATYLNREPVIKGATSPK
Chain of α5GABAARs (P63080 26-473 partner): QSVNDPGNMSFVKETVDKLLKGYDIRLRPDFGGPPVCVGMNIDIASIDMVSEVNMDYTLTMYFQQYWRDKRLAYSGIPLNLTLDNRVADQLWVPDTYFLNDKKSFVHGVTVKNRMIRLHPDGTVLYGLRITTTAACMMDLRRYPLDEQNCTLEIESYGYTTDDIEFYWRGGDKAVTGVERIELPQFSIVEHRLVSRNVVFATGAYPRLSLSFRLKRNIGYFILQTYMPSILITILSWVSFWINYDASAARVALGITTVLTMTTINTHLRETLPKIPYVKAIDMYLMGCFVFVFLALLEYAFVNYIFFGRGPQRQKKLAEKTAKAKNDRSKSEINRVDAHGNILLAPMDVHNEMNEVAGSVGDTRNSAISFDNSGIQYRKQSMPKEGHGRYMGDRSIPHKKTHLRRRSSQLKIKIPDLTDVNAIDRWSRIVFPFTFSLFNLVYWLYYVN
Chain of α5GABAARs (P22723 39-474): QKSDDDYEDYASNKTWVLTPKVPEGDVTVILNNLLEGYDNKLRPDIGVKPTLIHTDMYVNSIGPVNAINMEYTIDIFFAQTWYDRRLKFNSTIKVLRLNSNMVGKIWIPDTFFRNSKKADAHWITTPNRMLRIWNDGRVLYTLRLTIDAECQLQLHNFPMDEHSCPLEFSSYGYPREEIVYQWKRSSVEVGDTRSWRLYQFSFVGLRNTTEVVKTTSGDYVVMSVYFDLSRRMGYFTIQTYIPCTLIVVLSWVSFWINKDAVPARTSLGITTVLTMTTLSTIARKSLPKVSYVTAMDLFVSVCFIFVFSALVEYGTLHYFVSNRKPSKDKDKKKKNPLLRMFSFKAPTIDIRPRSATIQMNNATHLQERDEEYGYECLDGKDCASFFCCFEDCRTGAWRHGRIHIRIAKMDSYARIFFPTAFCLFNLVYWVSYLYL

For `CCOC(=O)c1ncn2c1[C@@H]1CCCN1C(=O)c1cc(OC)ccc1-2` [L-655,708], the “trace fear memory, freezing scores (in words)” value (α5GABAARs; L-655,708 1 mg/kg i.p. 30 minutes prior to training) is listed as “demonstrated increased freezing scores”, the “contextual fear memory, freezing score (in words)” value (α5GABAARs; etomidate or etomidate plus L-655,708 30 min prior to training) is listed as “prevented the etomidate-induced memory deficit” and the “occupancy of α1, α2 and α3 subunit-containing GABAA receptors” value [1] is listed as 18%. For the same molecule, the “estimated occupancy of α5GABAA receptors in vivo” value (α5GABAA receptors) was 60-70%.
